In a compilation of properties of binary mixtures (doi:10.1016/j.tca.2013.02.002):

Assay: xn = mol fraction of the nth substance listed
Details: 101 kPa

## CS(C)=O + CC[NH+](CC)CC.O=S(=O)([O-])O
298.15 K, x1 = 1
  speed of sound: 1496 m/s
  viscosity: 1.99 mPa·s
303.15 K, x1 = 1
  speed of sound: 1472 m/s
  viscosity: 1.8 mPa·s
308.15 K, x1 = 1
  speed of sound: 1460 m/s
  viscosity: 1.65 mPa·s

## CC[NH+](CC)CC.O=S(=O)([O-])O + CS(C)=O
298.15 K, x2 = 0
  speed of sound: 1874 m/s
  viscosity: 235 mPa·s
298.15 K, x2 = 0.0557
  speed of sound: 1861 m/s
  viscosity: 219 mPa·s
298.15 K, x2 = 0.108
  speed of sound: 1852 m/s
  viscosity: 204 mPa·s
298.15 K, x2 = 0.1556
  speed of sound: 1838 m/s
  viscosity: 190 mPa·s
298.15 K, x2 = 0.2473
  speed of sound: 1812 m/s
  viscosity: 165 mPa·s
298.15 K, x2 = 0.3279
  speed of sound: 1786 m/s
  viscosity: 144 mPa·s
298.15 K, x2 = 0.4004
  speed of sound: 1758 m/s
  viscosity: 125 mPa·s
298.15 K, x2 = 0.4964
  speed of sound: 1720 m/s
  viscosity: 101 mPa·s
298.15 K, x2 = 0.5798
  speed of sound: 1684 m/s
  viscosity: 81.1 mPa·s
298.15 K, x2 = 0.653
  speed of sound: 1652 m/s
  viscosity: 64.6 mPa·s
298.15 K, x2 = 0.7376
  speed of sound: 1614 m/s
  viscosity: 46.7 mPa·s
298.15 K, x2 = 0.7812
  speed of sound: 1594 m/s
  viscosity: 38.2 mPa·s
298.15 K, x2 = 0.8269
  speed of sound: 1574 m/s
  viscosity: 29.63 mPa·s
298.15 K, x2 = 0.8772
  speed of sound: 1550 m/s
  viscosity: 20.8 mPa·s
298.15 K, x2 = 0.9156
  speed of sound: 1534 m/s
  viscosity: 14.31 mPa·s
303.15 K, x2 = 0
  speed of sound: 1871 m/s
  viscosity: 153 mPa·s
303.15 K, x2 = 0.0244
  speed of sound: 1867 m/s
  viscosity: 148 mPa·s
303.15 K, x2 = 0.0557
  speed of sound: 1859 m/s
  viscosity: 142 mPa·s
303.15 K, x2 = 0.108
  speed of sound: 1850 m/s
  viscosity: 132 mPa·s
303.15 K, x2 = 0.1556
  speed of sound: 1836 m/s
  viscosity: 123 mPa·s
303.15 K, x2 = 0.199
  speed of sound: 1820 m/s
  viscosity: 115 mPa·s
303.15 K, x2 = 0.2473
  speed of sound: 1808 m/s
  viscosity: 106 mPa·s
303.15 K, x2 = 0.3279
  speed of sound: 1778 m/s
  viscosity: 92 mPa·s
303.15 K, x2 = 0.4004
  speed of sound: 1748 m/s
  viscosity: 79.3 mPa·s
303.15 K, x2 = 0.4964
  speed of sound: 1708 m/s
  viscosity: 63.8 mPa·s
303.15 K, x2 = 0.5798
  speed of sound: 1670 m/s
  viscosity: 51.1 mPa·s
303.15 K, x2 = 0.7376
  speed of sound: 1596 m/s
  viscosity: 29.42 mPa·s
303.15 K, x2 = 0.7812
  speed of sound: 1576 m/s
  viscosity: 24.22 mPa·s
303.15 K, x2 = 0.8269
  speed of sound: 1554 m/s
  viscosity: 19.13 mPa·s
303.15 K, x2 = 0.8772
  speed of sound: 1530 m/s
  viscosity: 13.67 mPa·s
303.15 K, x2 = 0.9156
  speed of sound: 1514 m/s
  viscosity: 9.78 mPa·s
303.15 K, x2 = 0.9539
  speed of sound: 1495 m/s
  viscosity: 6.27 mPa·s
308.15 K, x1 = 0.011
  speed of sound: 1468 m/s
  viscosity: 2.8 mPa·s
308.15 K, x2 = 0
  speed of sound: 1866 m/s
  viscosity: 138 mPa·s
308.15 K, x2 = 0.0244
  speed of sound: 1863 m/s
  viscosity: 134 mPa·s
308.15 K, x2 = 0.0557
  speed of sound: 1857 m/s
  viscosity: 129 mPa·s
308.15 K, x2 = 0.108
  speed of sound: 1850 m/s
  viscosity: 120 mPa·s
308.15 K, x2 = 0.1556
  speed of sound: 1830 m/s
  viscosity: 112 mPa·s
308.15 K, x2 = 0.199
  speed of sound: 1822 m/s
  viscosity: 105 mPa·s
308.15 K, x2 = 0.3279
  speed of sound: 1778 m/s
  viscosity: 85.4 mPa·s
308.15 K, x2 = 0.4964
  speed of sound: 1706 m/s
  viscosity: 60.6 mPa·s
308.15 K, x2 = 0.5798
  speed of sound: 1666 m/s
  viscosity: 49.2 mPa·s
308.15 K, x2 = 0.653
  speed of sound: 1632 m/s
  viscosity: 39.59 mPa·s
308.15 K, x2 = 0.7376
  speed of sound: 1590 m/s
  viscosity: 29.13 mPa·s
308.15 K, x2 = 0.7812
  speed of sound: 1568 m/s
  viscosity: 23.96 mPa·s
308.15 K, x2 = 0.8269
  speed of sound: 1546 m/s
  viscosity: 18.72 mPa·s
308.15 K, x2 = 0.8772
  speed of sound: 1520 m/s
  viscosity: 13.35 mPa·s
308.15 K, x2 = 0.9156
  speed of sound: 1502 m/s
  viscosity: 9.41 mPa·s
308.15 K, x2 = 0.9539
  speed of sound: 1484 m/s
  viscosity: 5.84 mPa·s
